The record followed here is patent US20070265208A1, “Association of calpain inhibitors and reactive oxygen species trapping agents” (priority 2000, published 2007).

Broadly, the IC50 is the concentration at which inhibition is half-maximal.

In one assay the target is T1, human calpain I (Homo sapiens, UniProt P07384).
T1 construct: enzyme purified from human erythrocytes; purchased Calbiochem 208713; host or cells: human erythrocytes (native tissue source)
T1 sequence (P07384 1-714): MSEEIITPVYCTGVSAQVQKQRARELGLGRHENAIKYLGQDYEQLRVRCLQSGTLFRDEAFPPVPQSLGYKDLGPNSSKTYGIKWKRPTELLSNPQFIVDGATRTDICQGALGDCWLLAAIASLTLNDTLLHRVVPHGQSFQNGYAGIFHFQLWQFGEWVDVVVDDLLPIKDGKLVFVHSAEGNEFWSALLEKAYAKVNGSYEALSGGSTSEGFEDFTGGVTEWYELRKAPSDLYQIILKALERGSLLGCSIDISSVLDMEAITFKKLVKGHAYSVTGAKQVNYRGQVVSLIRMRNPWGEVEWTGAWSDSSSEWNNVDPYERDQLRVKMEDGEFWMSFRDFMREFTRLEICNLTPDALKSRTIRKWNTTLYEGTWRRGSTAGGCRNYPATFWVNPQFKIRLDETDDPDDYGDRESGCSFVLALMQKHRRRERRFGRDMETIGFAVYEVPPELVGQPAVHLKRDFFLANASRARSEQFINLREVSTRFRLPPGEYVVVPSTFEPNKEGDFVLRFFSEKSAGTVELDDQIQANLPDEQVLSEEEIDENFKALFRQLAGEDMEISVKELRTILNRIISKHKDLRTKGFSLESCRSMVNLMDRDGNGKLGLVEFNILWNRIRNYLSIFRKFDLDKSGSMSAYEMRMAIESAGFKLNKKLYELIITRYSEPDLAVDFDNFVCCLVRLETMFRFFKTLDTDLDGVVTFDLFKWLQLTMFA
T1 sequence (P04632 1-268 partner): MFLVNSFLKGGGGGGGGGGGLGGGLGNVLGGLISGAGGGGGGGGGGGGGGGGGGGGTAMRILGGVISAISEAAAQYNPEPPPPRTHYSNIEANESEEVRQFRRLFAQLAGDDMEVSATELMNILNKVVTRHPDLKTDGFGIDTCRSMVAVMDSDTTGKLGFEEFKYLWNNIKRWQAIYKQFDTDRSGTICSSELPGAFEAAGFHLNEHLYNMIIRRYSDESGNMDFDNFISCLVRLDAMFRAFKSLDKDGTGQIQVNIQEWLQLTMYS
Nature of the assay: Effects on human calpain I (acellular, Suc-Leu-Tyr-AMC fluorescence). The conditions noted are these: enzyme purified from human erythrocytes; 1 h at 25°C; read-out: Inhibition human calpain I, acellular [IC50 (nM)]. Type of assay: biochemical. The procedure: The test consists of measuring the activity of the enzyme (enzyme purified from human erythrocytes) which is incubated in a buffer in the presence of a peptide substrate coupled with a fluorochrome (amino-methylcourmarin, AMC) and calcium. The enzyme activated by the calcium, proteolyses the substrate and releases the AMC fragment. The AMC released fluoresces at 460 nm under excitation at 380 nm. The activity of the enzyme is therefore proportional to the quantity of fluorescence i.e. of free AMC fragment. The fluorescence (380/460 nm) is measured using a multi-well fluorimeter (Victor 2, Wallac).
Assay is carried out in 96-well microplates with transparent bottoms and black walls in which 10 μl per well of substance to be tested in DMSO 10%, 45 μl of reaction mixture containing the human calpain I at 2.2 U/ml (Calbiochem, ref: 208713), the Suc Leu Tyr-AMC substrate (Bachem, ref: I-1355) at 1.1 mM in a buffer (Tris-HCl 110 mM; NaCl 110 mM; EDTA 2.2 mM; EGTA 2.2 mM; mercaptoethanol 1.1 mM) are distributed. The reaction is initiated by adding 45 μl of CaCl2 22mM. To determine the background noise, control wells without calcium are added to the plate (10 μL DMSO 10%+45 μL of buffer with the enzyme and the susbtrate +45 μL H2O). In order to determine the total activity of the enzyme control wells containing no product are added to the plate (10 μL DMSO 10%+45 μL of buffer with the enzyme and the substrate +45 μL of CaCl2 22 mM ). Each concentration of the products (0.1 nM to 10 μM) is tested in duplicate. The plates are shaken and incubation takes place for one hour at 25° C. in darkness. The fluorescence is read at 380/460 nm using the Victor.

The test system of assay [1] is human neuroblastomas SHSY5Y. The assay can be described thus: Protection from necrosis induced by maitotoxin, SHSY5Y (wst-1 viability). Type of assay: cell-based. The conditions noted are these: for Protection from necrosis induced by MTX: SHSY5Y, n=2, 0.1 nM maitotoxin; for Protection from necrosis induced by MTX on SHSY5Y: n = 8, single product at 100 μM. The procedure: Human neuroblastomas SHSY5Y and rat glial cells C6 are seeded at 25 000 cells per well in 96-well plates in DMEM 10% FBS for 24 hours. The L6 rat myoblasts are seeded at 1000 cells per well in DMEM 10% FBS on 96-well microplates coated beforehand with gelatin 0.5% PBS. After culture for 3 days the medium is removed and replaced with a differentiation medium (DMEM+10 μg/ml of insulin+100 μg/ml of transferrin). 50 μl of product A plus 50 μl of solvent or 50 μl of product B are placed in the wells. After incubation for 1 hour at 37° C. under an atmosphere of 5% CO2, 10 μl of maitotoxin is added in order to obtain a final concentration of 0.1 nM to 1 nM (according to the cell type). After incubation for 3 hours at 37° C. under an atmosphere of 5% CO2, the cell viability is determined by adding 10 μl of tetrazolium salts (wst-1, Roche, ref: 1644807). The tetrazolium salts are cleaved into formazan molecules by mitochondrial dehydrogenases. The quantity of formazan formed is directly correlated to the number of metabolically active cells in the culture. Measurement of the absorbance of the formazan is carried out using a multiwell photometer at a wavelength of 420 nm against a reference wavelength of 620 nm.
The theoretical effect was obtained by multiplying the percentage of dead cells in the presence of product A by the percentage of dead cells in the presence of product B (Table 3). The percentage protection against cell death induced by MTX being the percentage of cells kept alive in the presence of the product or products.
In a first series of experiments, the concentration of product A in Example 1 is fixed (100 μM), product B is added at concentrations varying from zero to 100 μM (Table 4A). In a second series of experiments, product B of Example 1 is fixed at 100 μM, product A is added at concentrations varying from zero to 100 μM (Table 4B).

In the case of `CC(C)C[C@@H](C=O)NC(=O)[C@H](CC(C)C)NC(=O)OCc1ccccc1` [EXAMPLE 1 B, benzyl (1S)-1-({[(1S)-1-formyl-3-methylbutyl]amino}carbonyl)-3-methylbutylcarbamate], the IC50 on human calpain I is 6 nM. The “Protection from necrosis induced by MTX” value was 6.89 ± 1.51% in assay [1] (single compound at 12.5 μM), 6.94 ± 0.2% in assay [1] (single compound at 25 μM), 9.01 ± 0.83% in assay [1] (single compound at 50 μM) and 17.52 ± 2.69% in assay [1] (single compound at 100 μM). The “Protection from necrosis induced by MTX on SHSY5Y” value in assay [1] is given as 12.87 ± 3.72%; in assay [1] (listed as Z-Leu-Leu-H) it was “not active”.
